Assay results from US8937067B2, “Activators of human pyruvate kinase” (The United States of America, as represented by the …, priority 2008, dated 2015).
Like-named read-outs stand apart in the source and are kept apart here.

Molecular target: hPK-M2 (Homo sapiens, UniProt P14618)
Assay: Luminescent pyruvate kinase-luciferase coupled assay (KinaseGlo)
Format: biochemical
Details: for activation at 57 µM / hPK, M2 Max. Res.: KinaseGlo, % activation at 57 μM of compound; for activation at 57 µM: read-out: hPK, M2 Max. Res.
Description: Luminescent Pyruvate Kinase-Luciferase Coupled Assay.
Production of a luminescent signal based on the generation of ATP by pyruvate kinase was determined by using the ATP-dependent enzyme firefly luciferase. Three μL of substrate mix (at r.t.) in assay buffer (50 mM imidazole pH 7.2, 50 mM KCl, 7 mM MgCl2, 0.01% tween 20, 0.05% BSA) was dispensed into Kalypsys white solid bottom 1,536 well microtiter plates using a bottle-valve solenoid-based dispenser (Kalypsys). The final concentrations of substrates in the assay were 0.1 mM ADP and 0.5 mM PEP. […] Microtiter plates were incubated at r.t. for 1 hour and 2 uL of luciferase detection mix (Kinase-Glo, Promega at 4° C. protected from light) was added and luminescence was read with a ViewLux (Perkin Elmer) using a 5 second exposure/plate. Data was normalized for AC50 values to control columns containing uninhibited enzyme (n), and AC100 inhibition (i) according the following equation: Activation (%)=[(c−n)/(n−i)]*100 where c=compound, n=DMSO neutral, i=no enzyme control. […] Monitoring of activation was accomplished using enzyme at 3× the final concentration.

[1] = luminescent pyruvate kinase-luciferase coupled assay (KinaseGlo), tables, read-out: hPK, M2 AC50
[2] = luciferase-coupled assay, read-out: AC50

Sequence of hPK-M2 (P14618 whole entry): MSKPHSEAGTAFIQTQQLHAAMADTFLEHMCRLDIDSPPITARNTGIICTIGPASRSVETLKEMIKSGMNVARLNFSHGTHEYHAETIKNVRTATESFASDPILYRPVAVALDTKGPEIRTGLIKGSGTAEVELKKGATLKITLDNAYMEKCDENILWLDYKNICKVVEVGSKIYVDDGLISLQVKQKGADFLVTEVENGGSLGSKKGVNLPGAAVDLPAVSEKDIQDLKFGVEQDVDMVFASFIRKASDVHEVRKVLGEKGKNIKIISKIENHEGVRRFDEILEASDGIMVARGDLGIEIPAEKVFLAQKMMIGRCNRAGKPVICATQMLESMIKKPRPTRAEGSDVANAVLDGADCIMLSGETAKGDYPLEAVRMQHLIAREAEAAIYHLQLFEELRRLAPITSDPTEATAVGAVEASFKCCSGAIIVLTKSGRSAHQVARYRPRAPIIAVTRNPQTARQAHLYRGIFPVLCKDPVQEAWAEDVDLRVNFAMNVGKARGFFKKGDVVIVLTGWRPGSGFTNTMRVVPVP

SMILES | activation at 57 µM [%] | AC50 [1] [nM] | further results
O=S(=O)(NCCCCNS(=O)(=O)c1c(F)cccc1F)c1ccc2c(c1)OCCO2 [Compound 34, N-(4-(2,6-difluorophenylsulfonamido)butyl)-2,3-dihydrobenzo[b][1,4]dioxine-6-sulfonamide] | 113 ± 14.6 | 7970 ± 4050 | –
Cc1cc2c(s1)c1cnn(Cc3ccc(C)c(F)c3F)c(=O)c1n2C [Compound 119, 2,4-Methyl-6-[(4-methyl-2,3-fluorophenyl)methyl]-4H-thieno[3,2-b]pyrrole[3,2-d]pyridazinone] | – | 108 ± 30 | hPK, M2 Max. Res.: 80.5 ± 5.8%
O=S(=O)(c1ccc(F)cc1)N1CCN(S(=O)(=O)c2ccc3c(c2)OCCO3)CC1 [Compound 6, 1-(2,3-dihydrobenzo[b][1,4]dioxin-6-ylsulfonyl)-4-(4-fluorophenylsulfonyl)piperazine] | 99.7 ± 4.2 | 94 | –
C[C@@H]1CN(S(=O)(=O)c2c(F)cccc2F)CCN1S(=O)(=O)c1ccc2c(c1)OCCO2 [Compound 46, (R)-4-(2,6-difluorophenylsulfonyl)-1-(2,3-dihydrobenzo[b][1,4]dioxin-6-ylsulfonyl)-2-methylpiperazine] | 98.8 ± 2.6 | 3100 ± 1170 | –
Cc1cc2c(s1)c1cnn(Cc3ccc(F)c(F)c3F)c(=O)c1n2C [Compound 116, 2,4-Methyl-6-[(2,3,4-trifluorophenyl)methyl]-4H-thieno[3,2-b]pyrrole[3,2-d]pyridazinone] | 69.2 ± 14.6 | 174 ± 70 | –
O=S(=O)(c1ccccc1)N1CCN(S(=O)(=O)c2ccc3c(c2)OCCO3)CC1 [Compound 15, 1-(2,3-dihydrobenzo[b][1,4]dioxin-6-ylsulfonyl)-4-(phenylsulfonyl)piperazine] | 108 ± 4.3 | 202 | –
C[C@H]1CN(S(=O)(=O)c2ccc3c(c2)OCCO3)CCN1S(=O)(=O)c1c(F)cccc1F [Compound 48, (S)-1-(2,6-difluorophenylsulfonyl)-4-(2,3-dihydrobenzo[b][1,4]dioxin-6-ylsulfonyl)-2-methylpiperazine] | 108 ± 8.4 | 2960 ± 200 | –
Cc1cc2c(s1)c1cnn(Cc3cccc(F)c3F)c(=O)c1n2C [Compound 114, 2,4-Methyl-6-[(2,3-difluorophenyl)methyl]-4H-thieno[3,2-b]pyrrole[3,2-d]pyridazinone] | 72.8 ± 7.8 | 215 ± 60 | –
N#Cc1ccc(S(=O)(=O)N2CCN(S(=O)(=O)c3ccc4c(c3)OCCO4)CC2)cc1 [Compound 4, 4-(4-(2,3-dihydrobenzo[b][1,4]dioxin-6-ylsulfonyl)piperazin-1-ylsulfonyl)benzonitrile] | 44.1 ± 6.1 | 29 | –
CC(O)c1cc2c(s1)c1cnn(Cc3ccccc3F)c(=O)c1n2C (stereo not drawn) [Compound 88] | – | 136 ± 10 | hPK, M2 Max. Res.: 119.7 ± 2.6%
O=S(=O)(NCC1CN(S(=O)(=O)c2c(F)cccc2F)C1)c1ccc2c(c1)OCCO2 [Compound 43] | 93.3 ± 9 | 4470 | –
CC(=O)Nc1cc2c(s1)c1cnn(Cc3ccccc3F)c(=O)c1n2C [Compound 81, 2-Acetylamido-4-methyl-6-[(2-fluorophenyl)methyl]-4H-thieno[3,2-b]pyrrole[3,2-d]-pyridazinone] | 58.6 ± 23.5 | – | –
O=S(=O)(NC1CCN(S(=O)(=O)c2ccc3c(c2)OCCO3)C1)c1c(F)cccc1F (stereo not drawn) [Compound 42, N-(1-(2,3-dihydrobenzo[b][1,4]dioxin-6-ylsulfonyl)pyrrolidin-3-yl)-2,6-difluorobenzenesulfonamide] | 83.7 ± 24.2 | > 10000 | –
O=S(=O)(c1ccc2c(c1)OCCO2)N1CCN(S(=O)(=O)c2cccc[n+]2[O-])CC1 [Compound 19, 2-(4-(2,3-dihydrobenzo[b][1,4]dioxin-6-ylsulfonyl)piperazin-1-ylsulfonyl)pyridine 1-oxide] | 81.5 ± 3.2 | – | AC50 [2]: 254 ± 47 nM; Emax (luciferase-coupled assay, relative to activation by FBP, read-out: maximum response): 104%
CSc1cc2c(s1)c1cnn(Cc3ccccc3F)c(=O)c1n2C [Compound 72, 2-Methylthio-4-methyl-6-[(2-fluorophenyl)methyl]-4H-thieno[3,2-b]pyrrole[3,2-d]pyridazinone] | 96.3 ± 3.8 | 24 ± 10 | –
O=S(=O)(c1c(F)cccc1F)C1CCN(S(=O)(=O)c2ccc3c(c2)OCCO3)CC1 [Compound 20, 4-(2,6-difluorophenylsulfonyl)-1-(2,3-dihydrobenzo[b][1,4]dioxin-6-ylsulfonyl)piperidine] | 104 ± 5.1 | 254 | –
Cc1cc2c(s1)c1cnn(Cc3cccc(C)c3F)c(=O)c1n2C [Compound 118, 2,4-Methyl-6-[(3-methyl-2-fluorophenyl)methyl]-4H-thieno[3,2-b]pyrrole[3,2-d]pyridazinone] | 97.4 ± 6.9 | 35 ± 10 | –

SMILES | activation at 57 µM [%] | AC50 [1] [nM] | further results
Cc1cc2c(s1)c1cnn(Cc3c(F)c(F)cc(F)c3F)c(=O)c1n2C [Compound 117, 2,4-Methyl-6-[(2,3,5,6-tetrafluorophenyl)methyl]-4H-thieno[3,2-b]pyrrole[3,2-d]pyridazinone] | 59.4 ± 6.3 | 345 ± 60 | –
O=S(=O)(c1cccc(C(F)(F)F)c1)N1CCN(S(=O)(=O)c2ccc3c(c2)OCCO3)CC1 [Compound 16, 1-(2,3-dihydrobenzo[b][1,4]dioxin-6-ylsulfonyl)-4-(3-(trifluoromethyl)phenylsulfonyl)piperazine] | 39.3 ± 6.2 | 209 | –
O=S(=O)(NCCCCCNS(=O)(=O)c1c(F)cccc1F)c1ccc2c(c1)OCCO2 [Compound 35, N-(5-(2,6-difluorophenylsulfonamido)pentyl)-2,3-dihydrobenzo[b][1,4]dioxine-6-sulfonamide] | 114 ± 1.4 | 2330 ± 160 | –
CCCCCn1ncc2c3sc(C)cc3n(C)c2c1=O [Compound 102, 2,4-Methyl-6-pentyl-4H-thieno[3,2-b]pyrrole[3,2-d]pyridazinone] | – | – | PKM2 activation, result in words: marked loss of potency
O=S(=O)(c1ccc2c(c1)OCCO2)N1CCN(S(=O)(=O)c2c(F)ccc(O)c2F)CC1 [Compound 13, 3-(4-(2,3-dihydrobenzo[b][1,4]dioxin-6-ylsulfonyl)piperazin-1-ylsulfonyl)-2,4-difluorophenol] | 95.3 ± 8.4 | – | AC50 [2]: 52 ± 14 nM
Cc1cc2c(s1)c1cnn(Cc3ccccc3F)c(=O)c1n2C [Compound 66, 2,4-Methyl-6-[(2-fluorophenyl)methyl]-4H-thieno[3,2-b]pyrrole[3,2-d]pyridazinone] | 122 ± 6.1 | 63 ± 20 | –
O=S(=O)(c1ccc2c(c1)OCCO2)N1CCN(S(=O)(=O)c2ccc3c(c2)OCCO3)CC1 [Compound 2, 1,4-bis(2,3-dihydrobenzo[b][1,4]dioxin-6-ylsulfonyl)piperazine] | 89.7 ± 2.2 | – | AC50 [2]: 270 nM
Cn1c2cc(C#N)sc2c2cnn(Cc3ccccc3F)c(=O)c21 [Compound 82, 2-Cyano-4-methyl-6-[(2-fluorophenyl)methyl]-4H-thieno[3,2-b]pyrrole[3,2-d]pyridazinone] | 84.1 ± 5.5 | 47 ± 20 | –
Cn1ccc2cc(S(=O)(=O)N3CCN(S(=O)(=O)c4c(F)cccc4F)CC3)ccc21 [Compound 28, 5-(4-(2,6-difluorophenylsulfonyl)piperazin-1-ylsulfonyl)-1-methyl-1H-indole] | 91.1 ± 4.7 | 387 | –
O=S(=O)(c1ccc2c(c1)OCCO2)N1CCN(S(=O)(=O)c2cc(F)c(F)cc2F)CC1 [Compound 10, 1-(2,3-dihydrobenzo[b][1,4]dioxin-6-ylsulfonyl)-4-(2,4,5-trifluorophenylsulfonyl)piperazine] | 105 ± 7.6 | 90 | –
Cc1cc2c(s1)c1cnn(Cc3ccccc3Cl)c(=O)c1n2C [Compound 106, 2,4-Methyl-6-[(2-chlorophenyl)methyl]-4H-thieno[3,2-b]pyrrole[3,2-d]pyridazinone] | 95.6 ± 10 | 298 ± 140 | –
O=S(=O)(c1ccc2c(c1)OCCO2)N1CCN(S(=O)(=O)c2c(F)cccc2F)CC1 [Compound 9, 1-(2,6-difluorophenylsulfonyl)-4-(2,3-dihydrobenzo[b][1,4]dioxin-6-ylsulfonyl)piperazine] | 94.4 ± 2.8 | – | AC50 [2]: 65 ± 25 nM
CC1(C)CCc2cc(S(=O)(=O)N3CCN(S(=O)(=O)c4c(F)cccc4F)CC3)ccc2O1 [Compound 27, 1-(2,6-difluorophenylsulfonyl)-4-(2,2-dimethylchroman-6-ylsulfonyl)piperazine] | 119 ± 5.4 | 93 | –
CNc1cccc(S(=O)(=O)N2CCN(S(=O)(=O)c3ccc4c(c3)OCCO4)CC2)c1 [Compound 142] | – | 290 | hPK, M2 Max. Res.: 67.00%
CCCc1cc(F)c(S(=O)(=O)N2CCN(S(=O)(=O)c3ccc4c(c3)OCCO4)CC2)cc1F [Compound 12, 1-(2,5-difluoro-4-propylphenylsulfonyl)-4-(2,3-dihydrobenzo[b][1,4]dioxin-6-ylsulfonyl)piperazine] | 69.2 ± 10.4 | 757 | PKM2 activation, result in words: diminished activity
O=S(=O)(c1ccc(Cl)cc1)N1CCN(S(=O)(=O)c2ccc3c(c2)OCCO3)CC1 [Compound 5, 1-(4-chlorophenylsulfonyl)-4-(2,3-dihydrobenzo[b][1,4]dioxin-6-ylsulfonyl)piperazine] | 99.6 ± 2.5 | 154 | –
